According to PubChem BioAssay (NCI):
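Interpolation was linear, between the two tested concentrations surrounding the appropriate level; five concentrations were tested over 48 hours in 96-well plates. At the TGI there is no net growth.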 Where a SMILES comes first, the peptide text is derived from it. The star is where a group is joined. Boc = CC(C)(C)OC(=O)*; nBu = CCCC*

Tests used:
Test in all cases: inhibition of tumour cell growth, NCI panel, 48 h
[1] = test system: NCI-H522 lung
[2] = test system: U251 CNS
[3] = test system: SF-539 CNS
[4] = test system: NCI/ADR-RES ovarian
[5] = test system: HOP-92 NSCLC
[6] = test system: HS 578T breast
[7] = test system: 786-0 renal
[8] = test system: UACC-62 melanoma
[9] = test system: LOX IMVI melanoma
[10] = test system: DU-145 prostate
[11] = test system: MDA-MB-231 breast

Row | Compound | TGI [1] [µM] | TGI [2] [µM] | TGI [3] [µM] | TGI [4] [µM] | TGI [5] [µM] | TGI [6] [µM] | TGI [7] [µM] | TGI [8] [µM] | TGI [9] [µM] | TGI [10] [µM] | TGI [11] [µM]
1 | Oc1ccccc1C=Nc1ccc(-c2nc3ccccc3s2)cc1 | 54.7 | > 100 | > 100 | > 100 | 56.4 | > 100 | > 100 | 66.3 | > 100 | > 100 | –
2 | CC1(C)OC[C@@H]([C@@]2(COC(c3ccccc3)(c3ccccc3)c3ccccc3)CC=CC(=O)O2)O1 | 40.9 | > 100 | > 100 | – | 92.1 | > 100 | > 100 | > 100 | > 100 | > 100 | > 100
3 | CCCCCCCCCCCCCCCc1nc(=S)[nH][nH]1 | 68.2 | > 100 | > 100 | – | – | – | – | > 100 | > 100 | – | –
4 | O=C(Nc1ccccc1)Oc1ccc(C(=S)Nc2ccc(Br)cc2)cc1 | 29.5 | 56.1 | 53 | 39.7 | – | > 100 | 52.2 | 30 | 24.8 | 81.8 | –
5 | CC1=NN(c2nc(N)nc(/C(C#N)=C\c3ccc(-c4ccc([N+](=O)[O-])cc4)o3)n2)C(C)(C)C1 | > 100 | > 100 | > 100 | > 100 | > 100 | > 100 | > 100 | > 100 | > 100 | > 100 | > 100
6 | COC(=O)/C=C\C(C#N)(C#N)N=Cc1ccc(OC)cc1 | 2.26 | 35.2 | 11.2 | 9.09 | 4.61 | 33.7 | 4.62 | 30 | 11.4 | 17 | 37.7
7 | Cc1cc(-c2nc3c(F)cccc3s2)ccc1N | > 100 | > 100 | – | > 100 | > 100 | > 100 | > 100 | > 100 | > 100 | > 100 | > 100
8 | COc1cc(C2S/C(=C/c3ccccc3)C(=O)N2c2cccc(NC(C)=O)c2)cc(OC)c1OC (centres undefined) | 47.1 | 50.8 | – | > 100 | 85.7 | 60.7 | – | > 100 | 54.7 | – | 50.7
9 | O=CNc1ccccc1OCCOc1ccccc1NC=O | > 100 | > 100 | > 100 | > 100 | > 100 | > 100 | > 100 | > 100 | > 100 | > 100 | > 100
10 | O=P(NCCCO)(OCc1ccccc1)N(CCCl)CCCl (centres undefined) | > 100 | > 100 | > 100 | > 100 | > 100 | – | – | > 100 | > 100 | – | –
11 | COc1ccccc1-c1c(C#N)c(N)[nH]c(=S)c1C#N | > 100 | > 100 | > 100 | > 100 | > 100 | > 100 | > 100 | > 100 | > 100 | > 100 | > 100
12 | CC(Oc1ccc(Cl)cc1Cl)C(=O)NN1C(=O)CC(=O)N(c2ccccc2)C1=S (centres undefined) | > 100 | > 100 | > 100 | > 100 | 84 | > 100 | > 100 | > 100 | > 100 | > 100 | > 100
13 | CC(C)CC(N)C(=O)NC(C(=O)NC(CCCNC(=N)N)C(=O)NC(CS)C(=O)NC1CSCC(C(=O)NC(Cc2ccccc2)C(=O)NC(C(=O)NC(CCCNC(=N)N)C(=O)O)C(C)C)NC(=O)C2CCCN2C(=O)C(CCCCN)NC(=O)C2CCCN2C(=O)C2CCCN2C(=O)C(Cc2ccc(O)cc2)NC(=O)C(CO)NC(=O)C(CCCCN)NC(=O)C(C(C)O)NC(=O)C(Cc2c[nH]c3ccccc23)NC1=O)C(C)C (centres undefined) | > 25 | > 25 | > 25 | > 25 | > 25 | > 25 | > 25 | > 25 | > 25 | > 25 | > 25
14 | COc1ccc(C2C3CCc4ccccc4C3=NN2S(=O)(=O)c2cccc(C(=O)O)c2OC)cc1 (centres undefined) | 14.2 | 34.9 | 22 | 11.7 | > 100 | – | > 100 | > 100 | > 100 | > 100 | > 100
15 | Nc1nc(SCC(=O)c2ccc(Br)cc2)c2[nH]cnc2n1 | 86.5 | > 100 | – | 93.6 | 62.1 | 81.9 | > 100 | > 100 | > 100 | > 100 | > 100
16 | COc1ccc(CCn2cncn2)cc1 | > 100 | > 100 | > 100 | – | > 100 | – | – | > 100 | – | – | –
17 | COc1ccccc1N/C(SCc1ccccc1)=C(/C(Cl)=C(Cl)Cl)[N+](=O)[O-] | – | 47.3 | 31.1 | 78.8 | – | – | 97.8 | > 100 | – | > 100 | 48.4
18 | COc1ccc2nc3cc(Cl)ccc3c(NCCCN3CCN(CCCNc4ccc5nnn6c7ccccc7c(=O)c4c56)CC3)c2c1 | > 23.8 | > 25 | 8.14 | > 25 | > 25 | > 25 | > 25 | > 25 | > 25 | > 25 | > 18.2
19 | Cc1ccc(-c2cn3c(nc4ccccc43)c(/C=C/c3ccco3)n2)cc1 | – | > 100 | > 100 | > 100 | > 100 | 84.2 | > 100 | > 100 | > 100 | > 100 | > 100
20 | CCCCOc1ccc(CC(NC(=O)OC(C)(C)C)C(=O)NC(C)C(=O)NC(Cc2ccccc2)C(=O)NCC(N)=O)cc1 (centres undefined) (Boc-Y(nBu)AFG-NH2; configuration not given here) | > 100 | > 100 | > 100 | > 100 | > 100 | > 100 | > 100 | > 100 | > 100 | > 100 | > 100
21 | COC(=O)c1c(O)ccc2c1c1cc3ccccc3c(O)c1n2CCc1ccc(OC)c(OC)c1 | > 100 | > 100 | > 100 | > 100 | > 100 | > 100 | > 100 | > 100 | – | > 100 | > 100
